Results as given in paper PMC7154662, “Structural Insight into IAPP‐Derived Amyloid Inhibitors and Their Mechanism of Action” (Angewandte Chemie (International Ed. in English), 2020).
Entries after “also recorded” stand apart in the source; their conditions may differ.

Assays:
Aβ = settings: cited from earlier work
Excerpt: (§1) Single‐site binding events are the classical paradigm for a drug–enzyme complex. Because of the low affinity and the lack of deep binding pockets, this class of inhibitors is not very effective for amyloids (Figure 7, top). Nevertheless, it has been shown that multi‐ligand interactions of tramisprosate with monomeric Aβ42 can prevent amyloid oligo ...

[1] = Morphology by TEM, DIC and fluorescence microscopy; type: physicochemical; settings: DIC experiments; 10 mM sodium phosphate buffer, pH 7.4 (1% v/v HFIP)
Experimental: Figure 1 R3‐GI self‐assembly. […] On the right, the binding curve is shown. The estimated app. […] Data are means (±SEM) from three binding curves. […] Scale bar: 10 μm.
(§2) Peptide synthesis and sample preparation for NMR
(§3) The other peptide samples were
(§4) Sample preparation for DLS, TEM and DIC
(§5) (containing 1% v/v HFIP) without filtration. The Fluor-647-Aβ40 was ordered from AnaSpec, […]
(§6) for 20 min before capturing images. […]
(§7) microscope, as described elsewhere. An oil immersion objective (Apo-TIRF 100x Oil/NA 1.49, Nikon) was used for all measurements.
(§8) Picoquant) was used for excitation. Fluorescence emission was detected using an avalanche […]
(§9) measurements were carried out at 22 °C.
(§10) (measured before the back aperture of the objective). […]
(§11) temperature within 2-5 min following solution preparation. The determined app. Kd is means (±SD) from three binding curves.
Cross-linking studies were performed as previously described. […]
(§12) Effects of peptides on amyloidogenesis of Aβ40 were determined using a previously established ThT binding assay as described. […] ThT binding was determined immediately by measuring fluorescence emission at 486 nm following excitation at 450 nm using a 2030 Multilabel Reader VictorX3 (PerkinElmer Life Sciences). […]
(§13) PA 19440, USA; Formvar/Carbon 300 mesh copper coated). Samples were measured immediately employing an EM 10 CR (Zeiss, Germany). […]

Aβ40 [2] = assay: Solubility of 15N-labeled Aβ40 in presence of ISM (NMR titration); type: binding; settings: for Aβ40 signal at tenfold excess of ISM, in words: molar ratio Aβ/ISM 1:10; for Effect on Aβ40 solubility upon titration, in words: titration with / incubation of monomeric Aβ40
Experimental: (§14) Figure 5 ISM–substrate interactions. A) ^15N‐filtered 1D‐^1H spectra of a 20 μM sample of ^15N‐labeled Aβ40 in the absence (black) and presence of the ISM inhibitor K3‐L3‐K3‐GI (top), and the non‐inhibitor G3‐GI (bottom). […] At this molar excess, the intensities of Aβ40 are reduced only to ca. 28 % when G3‐GI is titrated to Aβ40. […] At a molar ratio of 1:10 for Aβ/inhibitor, the spectrum is dominated by the resonances of the inhibitor. […] B) 2D ^1H‐^15N HSQCs of Aβ40 incubated with K3‐L3‐K3‐GI (red) at a molar ratio of 1:1. The Aβ40 reference spectrum is represented in black. […] C) Comparison of the DIC and fluorescence microscopy images of R3‐GI/Aβ40, K3‐L3‐K3‐GI/Aβ40, and G3‐GI/Aβ40. […] Scale: 10 μm.

Aβ40 [3] = assay: Co-localization of Fluos-labeled ISMs with Fluor-647-Aβ40 (DIC and fluorescence microscopy); type: binding; settings: incubated at room temperature for 20 min
Experimental: as §14, §2, §3, §4
(containing 1% v/v HFIP) without filtration. The Fluor-647-Aβ40 was ordered from AnaSpec,
for 20 min before capturing images.
microscope, as described elsewhere. An oil immersion objective (Apo-TIRF 100x Oil/NA
1.49, Nikon) was used for all measurements.
Picoquant) was used for excitation. Fluorescence emission was detected using an avalanche
as §9
(measured before the back aperture of the objective).

[4] = Solution-state NMR (NOESY, chemical shifts) structural characterization; type: physicochemical
Experimental: as §2, §3, §4, §5, §6, §7, §8, §9, §10
quantify the signal-to-noise ratio. For the R3-GI peptide, the signal to noise ratio of the isolated Thr-CH3 peak amounts to […]. For the reference peptide, the signal to noise of the single Thr-CH3 peak corresponds to 216.82. The ratio of concentrations amounts to a factor of 20.83. Otherwise, 1D-1H spectra were recorded under identical conditions. […]
images in which we determined the partitioning coefficient of the R3-GI solution (Fig. S3). […]
correlation time which in turn would result in higher NOESY cross peak intensities. A) H- H NOESY spectrum recorded for a 500 μM solution of R3-GI, using a salt concentration of 2.5 mM (black) and 50 mM NaCl (red), respectively. […]
recorded for a 500 μM solution of R3-GI, setting the pH to 5.98 (blue), 6.87 (green), 7.06 (red) and 7.23 (black). […]

Aβ40/42 = settings: ref 1b; cited from earlier work
Excerpt: The design of the ISMs was based on the finding that amyloids are generally composed of a β‐sheet‐turn‐β‐sheet structural motif and that IAPP uses the same two binding regions for both its amyloid self‐ and its cross‐amyloid hetero‐assem ... || Our studies focused on the two ISMs R3‐GI and K3‐L3‐K3‐GI for the following reasons (Figure 1 A and Table S1 in the Supporting Information): 1) R3‐GI was used in solution‐state NMR studies as the intrinsically low solubility of all ISMs with hydrophobic linkers makes them unsuitable for solution‐state NMR spectroscopy. […] Multivalent interactions between an inhibitor molecule and an amyloid fibril have been exploited by Wall and co‐workers,27 who designed an α‐helical peptide with a lysine basic side chain to interact with negatively charged residues exposed on the surface of amyloid structures. These inhibitors are used as imaging reagents and stabilize a fibrillar fold. In contrast, ISMs prevent amyloid form ...

Aβ42 = settings: multi-ligand interactions with monomeric Aβ42; cited from earlier work
Excerpt: as §1

[5] = Solubility of ISMs (qualitative); type: physicochemical
Aβ40 [6] = assay: Effects of ISM on Aβ40 amyloid self-assembly (ThT binding assay); type: biochemical; settings: Aβ40/ISM 1/1, 50 mM sodium phosphate buffer, pH 7.4, 100 mM NaCl, 1% HFIP, room temperature, 3 assays
Experimental: as §11
Cross-linking studies were performed as previously described. Briefly, R3-GI was dissolved at 500 μM in aqueous 10 mM sodium phosphate buffer, pH 7.4, and incubated for the indicated time points at room temperature, cross-linked with aqueous glutaraldehyde (25%) (Sigma-Aldrich), precipitated with aqueous trichloroacetic acid (TCA) (10%) and pellets were dissolved in NuPAGE sample buffer and subjected to NuPAGE electrophoresis in 4-12% Bis-Tris gels with MES running buffer. Equal amounts of peptide were loaded in all lanes. Coomassie blue staining was performed following standard protocols.
Dynamic light scattering experiments […]
as §12
(A) Amyloid self-assembly of Aβ40 alone and its mixtures (1:1) with K3-L3-K3-GI or L3-GI (control) determined using the ThT binding assay (means (±SEM), 3 assays). […]
7 days aged solutions from (A) were added to PC12 cells; cell damage was assessed by the MTT reduction assay (means (±SEM), 3 assays (n=3 each)). […]

Aβ40 [7] = assay: TEM of ISM-induced Aβ40 aggregates; type: biochemical; settings: equimolar amount of K3-L3-K3-GI
Experimental: Figure 6 Structural characterization of K3‐L3‐K3‐GI‐induced Aβ40 aggregates. A, B) TEM images of Aβ40 in the absence (A) and presence (B) of an equimolar amount of K3‐L3‐K3‐GI. Scale bar: 200 nm. C) 2D ^13C,^15N MAS solid‐state NMR correlation spectra obtained for K3‐L3‐K3‐GI‐induced Aβ40 aggregates (red). To prepare the sample, a 20 μM solution of monomeric Aβ40 was incubated with a 1.23‐fold molar excess of K3‐L3‐K3‐GI. For reference, the correlation spectrum obtained for Aβ40 fibrils is shown in black. To prepare the Aβ40 fibril sample, monomeric Aβ40 was grown using 5 % seeds, following the protocol described by Lopez and co‐workers.17 (D) Cα–Cβ chemical shift differences for K3‐L3‐K3‐GI‐induced Aβ40 aggregates (top). TALOS+^[19]‐predicted secondary structure propensity (bottom). […]
temperature within 2-5 min following solution preparation. The determined app. […]
as §12, §13

[8] = Saturation transfer difference (STD) NMR; type: physicochemical; settings: R3-GI 1.25 mM, control peptide 60 μM, 10 mM sodium phosphate buffer, pH 7.4 (1% v/v HFIP, 10% v/v D2O)
[9] = 20 μM 15N-labeled Aβ40, molar ratio 1:1

For `CSc1ccc(/C=C2/C(C)=C(CC(=O)O)c3cc(F)ccc32)cc1` [sulindac sulfide], the “Effect on Aβ peptide aggregation” value (Aβ) is given as “accelerates Aβ peptide aggregation”.
In the case of “ATQRLANFLVH-GGG-NF(N-Me)GA(N-Me)ILS [G3-GI]”, the “Macroscopic particles in solution (DIC)” value [1] is reported as “macroscopic particles are observed”, the “Aβ40 solubility at 1:1, in words” value (Aβ40 [2]; [9]) is reported as “almost unaffected” and the “Aβ40 resonance intensity remaining at tenfold excess of ISM” value (Aβ40 [2]; 20 μM 15N-labeled Aβ40, molar ratio Aβ/ISM 1:10) is reported as “ca. 28%”. For the same molecule, the “Aβ40 signal at tenfold excess of ISM, in words” value (Aβ40 [2]) was “high intensities were observed”, the “Effect on Aβ40 solubility upon titration, in words” value (Aβ40 [2]) was “no effects on Aβ40 solubility were observed” and the “Co-localization with Aβ40” value (Aβ40 [3]) was “no co‐localization with Aβ40”. The “Long-range NOE contacts (loop formation)” value [4] was “only weak long‐range NOEs if any” and the “Aβ amyloid self-assembly inhibition, in words” value (Aβ40/42) was “non‐inhibitor”.
For `NCCCS(=O)(=O)O` [tramisprosate], the “Effect on Aβ42 amyloid oligomer formation” value (Aβ42) is given as “can prevent amyloid oligomer formation”.
With “KKK-ATQRLANFLVH-LLL-NF(N-Me)GA(N-Me)ILS-KKK [K3-L3-K3-GI]” the “Solubility, in words” value [5] was “reasonably soluble”, the “Function of K3-L3-K3-GI as analogue of L3-GI (Figure S1)” value (Aβ40 [6]) was “functional analogue” and the “Aβ40 remaining in solution” value (Aβ40 [2]; [9]) was 9%. For the same molecule, the “Aβ40 chemical shift changes upon ISM addition” value (Aβ40 [2]; 2D 1H-15N HSQC, molar ratio 1:1) was “not affected; also recorded: No Aβ40 chemical shift changes were observed”, the “Aβ40 signal at tenfold excess of ISM, in words” value (Aβ40 [2]) was “almost empty; also recorded: disappear quantitatively” and the “Effect on Aβ40 solubility upon titration, in words” value (Aβ40 [2]) was “precipitated quickly out of solution”. The “Co-localization with Aβ40” value (Aβ40 [3]) was “co‐localize with Aβ40” and the “Morphology of ISM-induced Aβ40 aggregates” value (Aβ40 [7]) was “mainly amorphous aggregates”.
For GVAEPEQDCAVTSGE, the “STD NMR signals” value [8] was “monomeric” and the “STD NMR signals” value ([8]; listed as monomeric peptide used as a control) was “no STD signals”.
